From US5405843A, “Quinoline derivatives” (Mitsui Toatsu Chemicals, Incorporated, priority 1988, dated 1995)

What was measured:
[1] = system: Adriamycin resistant strain K562/ADM cells of human myeloleukemia K562 cells; test: Potentiating effect on activity of vincristine against adriamycin-resistant cells (growth inhibition); type: cell-based; settings: ratio to control IC50 655
Text: Potentiating Effect of the Compounds on Activity of Anticancer Drugs

[2] = system: Vincristine-resistant strain P388/VCR cells of mouse leukemia P388 cells; test: Potentiating effect on vincristine in mice having vincristine-resistant mouse leukemia (survival); type: in vivo, mouse (female CDFI mice); settings: peritoneal, once a day for 5 days; for T/C (rate of life prolongation): control = 100
[3] = system: Adriamycin resistant strain 2780 AD cells of human ovarian cancer A2780 cells; test: Potentiating effect on incorporation of 3H-vincristine into adriamycin-resistant cancer cells; type: cell-based; settings: Homo sapiens, 2780AD, 2 h, 20 nM 3H-vincristine, control = 100, read-out: 3H-vincristine accumulation
Method in brief: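 Cells at 1×10^6/ml were grown 24 h, then incubated 2 h at 37 °C in RPMI-1640 with 20 nM ^3H-vincristine, 5% FCS and compound (solution at 1.0 or 10.0 μg/ml). After washing and lysis in 0.2N NaOH, cellular ^3H-vincristine was counted by scintillation.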

[4] = system: drug-resistant cancer cells; settings: calcium antagonists such as verapamil; cited from earlier work
[5] = compound 3 mg/kg + vincristine 100 ug/kg
[6] = compound 30 mg/kg + vincristine 100 ug/kg

Compound	effect in potentiating vincristine activity, multiples of the control ([1]; compound 0.3 μg/ml)	effect in potentiating vincristine activity, multiples of the control ([1]; compound 1 μg/ml)	effect in potentiating vincristine activity, multiples of the control ([1]; compound 3 μg/ml)	Average surviving period [2, 5] [days]	T/C (rate of life prolongation) [2, 5] [%]	Average surviving period [2, 6] [days]	T/C (rate of life prolongation) [2, 6] [%]	activity at 1 µg/mL ([3]; compound 1 μg/ml) [%]	activity at 10 µg/mL ([3]; compound 10 μg/ml) [%]	prevention of discharge of anticancer drugs from cancer cells [4]
OC(COc1cccc2ncccc12)CN1CCN(C2c3ccccc3CCc3ccccc32)CC1 (stereo not shown) [Example 2, 5-[3-(4-(Dibenzosuberane-5-yl)piperazine-1-yl)-2-hydroxypropoxy]quinoline]	330.3	388.0	550.0	12.6 ± 0.2	113	15.2 ± 0.7	136	663	709	
COc1ccc(CCN(C)CCCC(C#N)(c2ccc(OC)c(OC)c2)C(C)C)cc1OC (stereo not shown) [verapamil]										prevent discharge of anticancer drugs from cancer cells
